Assays:
Assay type in all cases: in vivo
[1] = tested on: complex cancer cells of kidney; assay: Wistar rat model of human kidney cancer, tumor growth (Example 8); settings: tumor-bearing rats, 30 consecutive days of treatment, sacrificed on 31st day from tumor inoculation
Excerpt: (§1) The following example illustrates the benefit of a biological composition of the invention in a Wistar rat model of human kidney cancer. The growth of the tumor in the rats was studied.
(§2) Complex cancer cells of kidney closely resembles the human kidney cancer pathology. See e.g., Modern Clinical Experimental Protocols, People's Republic of China Health Publishing House, 1997.
(§3) The biological composition comprising 10^8 cells per ml of activated and conditioned yeast cells of the strain Saccharomyces carlsbergensis Hansen strain AS2.189 was prepared by the methods described in Section 5.1 and subsections therein.
The animals used to generate the kidney cancer cells for the experiments were Wistar rats (obtainable from the Chinese Academy of Military Medical Sciences, Beijing, China) having an average body weight of about 180 to 200 gram. The complex cancer cells of kidney (obtainable from the Shanghai Medical University, Shanghai, China) were generated from a Wistar rat with kidney cancer that was induced by subcutaneous injection of bismaleimidohexane (BHM). […]
The rats received the biological compositions, untreated yeast cells, VCR or saline on the same day as the tumor cells were transplanted. […] The weight of the rats and the weight of the tumor were determined by standard techniques.

[2] = tested on: complex cancer cells of kidney; assay: Wistar rat model of human kidney cancer, survival over 6 months (Example 9); settings: for Number of live animals remaining in the groups after 30 days of treatment: 30 per group
Method: as §1, §3
The animals were prepared in a similar manner as described in Section 8.1.
The rats injected with tumor cells were kept for 5 days and then were divided into 4 experimental groups of ten rats per group and one control group. The four experimental groups were triplicated (i.e., using a total of 120 rats in the experimental groups). In group 2AY, the rats received 0.8 ml of the biological composition once per day. In group 2NY, the rats received 0.8 ml of the untreated yeast cells once per day. In group 2VCR, the rats were injected intravenously with 3 mg of […] (VCR) per kg body weight per day. In group 2CK1, the rats received 0.8 ml of physiological saline once per day.
(§4) The rats received the biological compositions, untreated yeast cells, VCR or saline on the same day as the tumor cells were transplanted. The rats in group 2CK2 also started receiving saline on the same day as the other four groups. The biological compositions, untreated yeast cells and saline were administered orally by a feeding tube and the VCR by intravenous injection for 30 consecutive days. The rats were observed over 6 months from the day of tumor inoculation and survival was recorded. The weight of the rats and the weight of the tumor were determined by standard techniques.

[3] = tested on: complex cancer cells of kidney; assay: Syrian hamster model of human kidney cancer, survival time over 6 months (Example 7); settings: for Number of live animals remaining in the groups after 30 days of treatment: 30 per group
Method: The following example illustrates the benefit of a biological composition of the invention in a Syrian hamster model of human kidney cancer. The survival time of hamsters after tumor injection and treatment was studied.
as §3
The animals were prepared in a similar manner as described in Section 6.1.
The hamsters injected with tumor cells were immediately divided into 4 experimental groups of ten hamsters per group and one control group. The four experimental groups were triplicated (i.e., using a total of 120 hamsters in the experimental groups). In group 2AY, the hamsters received 0.5 ml of the biological composition once per day. In group 2NY, the hamsters received 0.5 ml of the untreated yeast cells once per day. In group 2FUDR, the hamsters were injected subcutaneously with 0.6 mg of fluoruridine (FUDR) per kg body weight per day. In group 2CK1, the hamsters received 0.5 ml of physiological saline once per day.
as §4, with “hamsters” for “rats”, “FUDR” for “VCR”, “subcutaneous” for “intravenous”

[4] = tested on: complex cancer cells of kidney; assay: Syrian hamster model of human kidney cancer, tumor growth (Example 6); settings: tumor-bearing hamsters, 30 consecutive days of treatment, sacrificed on 31st day from tumor inoculation
Excerpt: The following example illustrates the benefit of a biological composition of the invention in a Syrian hamster model of human kidney cancer. The growth of the tumor in the hamsters was studied. Detailed description of the use of Syrian hamster to study kidney cancer can be found in, e.g., Liehr et al., 1991, Carcinogenesis 12:385-9, which is incorporated herein by reference in its entirety.
as §2, §3
The animals used to generate the kidney cancer cells for the experiments were Syrian hamsters (obtainable from the Institute of Laboratory Animal Sciences, Chinese Academy of Medical Sciences, Beijing, China), an equal number of male and female, 5 to 6 months old, having an average body weight of 150 to 180 gram. […]
The hamsters received the biological compositions, untreated yeast cells, FUDR or saline on the same day as the tumor cells were transplanted. […] The weight of the hamsters and the weight of the tumor were determined by standard techniques.

[5] = surviving rats, observed over 6 months
[6] = surviving hamsters, observed over 6 months

CC[C@]1(O)C[C@@H]2CN(CCc3c([nH]c4ccccc34)[C@@](C(=O)OC)(c3cc4c(cc3OC)N(C)[C@H]3[C@@](O)(C(=O)OC)[C@H](OC(C)=O)[C@]5(CC)C=CCN6CC[C@]43[C@@H]65)C2)C1 [VCR, vinblastine]
mean weight of rats and standard deviation [1]: 189.6 ± 2.5 g
mean weight of tumor nodules and standard deviation [1]: 3.7 ± 1.9 g
Number of live animals remaining in the groups after 30 days of treatment ([2]; rats, 0 month after cessation of treatment): 30
Number of live animals remaining in the groups after 30 days of treatment ([2]; rats, 1 month after cessation of treatment): 30
Number of live animals remaining in the groups after 30 days of treatment ([2]; rats, 2 months after cessation of treatment): 30
Number of live animals remaining in the groups after 30 days of treatment ([2]; rats, 3 months after cessation of treatment): 22
Number of live animals remaining in the groups after 30 days of treatment ([2]; rats, 4 months after cessation of treatment): 13
Number of live animals remaining in the groups after 30 days of treatment ([2]; rats, 5 months after cessation of treatment): 0
Number of live animals remaining in the groups after 30 days of treatment ([2]; rats, 6 months after cessation of treatment): 0
survival outcome during the experiment ([2]; rats, observed over 6 months): all died
mean weight of rats and standard deviation [2, 5]: all animals dead
mean weight of tumor nodules and standard deviation [2, 5]: all animals dead

O=c1[nH]c(=O)n([C@H]2C[C@H](O)[C@@H](CO)O2)cc1F [FUDR, fluoruridine]
Number of live animals remaining in the groups after 30 days of treatment ([3]; hamsters, 0 month after cessation of treatment): 30
Number of live animals remaining in the groups after 30 days of treatment ([3]; hamsters, 1 month after cessation of treatment): 27
Number of live animals remaining in the groups after 30 days of treatment ([3]; hamsters, 2 months after cessation of treatment): 11
Number of live animals remaining in the groups after 30 days of treatment ([3]; hamsters, 3 months after cessation of treatment): 5
Number of live animals remaining in the groups after 30 days of treatment ([3]; hamsters, 4 months after cessation of treatment): 0
Number of live animals remaining in the groups after 30 days of treatment ([3]; hamsters, 5 months after cessation of treatment): 0
Number of live animals remaining in the groups after 30 days of treatment ([3]; hamsters, 6 months after cessation of treatment): 0
survival outcome during the experiment ([3]; hamsters, observed over 6 months): all died
mean weight of hamsters and standard deviation [3, 6]: all animals dead
mean weight of tumor nodules and standard deviation [3, 6]: all animals dead
mean weight of hamsters and standard deviation [4]: 116.7 ± 4.9 g
mean weight of tumor nodules and standard deviation [4]: 2.7 ± 1.2 mg
